Results published in ChEMBL document CHEMBL3808273, “Steroids from the rhizome of Anemarrhena asphodeloides and their cytotoxic activities” (Bioorg Med Chem Lett, 2016).

Experiments:
[1] = test system: HepG2; assay: Cytotoxicity against human HepG2 cells assessed as growth inhibition after 48 hrs by MTT assay; assay type: functional, cell-based; details: HepG2, 48 h
[2] = test system: MCF7; assay: Cytotoxicity against human MCF7 cells assessed as growth inhibition after 48 hrs by MTT assay; assay type: functional, cell-based; details: MCF7, 48 h
[3] = Cytotoxicity against human Hep3B cells assessed as growth inhibition after 48 hrs by MTT assay; assay type: functional, cell-based, Hep 3B2
[4] = test system: A549; assay: Cytotoxicity against human A549 cells assessed as growth inhibition after 48 hrs by MTT assay; assay type: functional, cell-based; details: A549, 48 h
[5] = test system: Bcap37; assay: Cytotoxicity against human Bcap37 cells assessed as growth inhibition after 48 hrs by MTT assay; assay type: functional, cell-based; details: Bcap37, 48 h

**Q.** Which results are given for C=C1CC[C@@]2(OC1)O[C@H]1C[C@H]3[C@@H]4CC[C@H]5C[C@@H](O[C@@H]6O[C@H](CO)[C@H](O)[C@H](O)[C@H]6O[C@@H]6O[C@H](CO)[C@@H](O)[C@H](O)[C@H]6O)CC[C@]5(C)[C@H]4CC[C@]3(C)[C@H]1[C@@H]2C?
**A.** IC50 [1]: 6.47 µM; IC50 [2]: 13.1 µM; IC50 [3]: 9.98 µM; IC50 [4]: 5.62 µM; IC50 [5]: 7.72 µM

**Q.** With C[C@H]1CC[C@@]2(OC1)O[C@H]1C[C@H]3[C@@H]4CC[C@H]5C[C@@H](O)CC[C@]5(C)[C@H]4CC[C@]3(C)[C@H]1[C@@H]2C as the compound, how does the IC50 [1] read?
**A.** > 50 µM

**Q.** What about the IC50 [2] of the same compound?
**A.** > 50 µM

**Q.** And the IC50 [3]?
**A.** > 50 µM

**Q.** What about the IC50 [4] of the same compound?
**A.** > 50 µM

**Q.** And the IC50 [5]?
**A.** > 50 µM

**Q.** With C[C@H]1CC[C@@]2(OC1)O[C@H]1C[C@H]3[C@@H]4CC[C@H]5C[C@@H](O[C@@H]6O[C@H](CO)[C@H](O)[C@H](O)[C@H]6O[C@@H]6O[C@H](CO)[C@@H](O)[C@H](O)[C@H]6O)CC[C@]5(C)[C@H]4CC[C@]3(C)[C@H]1[C@@H]2C as the compound, how does the IC50 [1] read?
**A.** 4.64 µM

**Q.** And the IC50 [2]?
**A.** 20.5 µM

**Q.** And the IC50 [3]?
**A.** 0.35 µM

**Q.** What about the IC50 [4] of the same compound?
**A.** 7.33 µM

**Q.** What about the IC50 [5] of the same compound?
**A.** 5.37 µM

**Q.** Which IC50 [3] does the source give for O=c1[nH]cc(F)c(=O)[nH]1 [FLUOROURACIL] here?
**A.** 23 µM

**Q.** And the IC50 [5]?
**A.** 5.18 µM

**Q.** With C[C@@H]1CO[C@]2(O[C@@H]3C[C@@H]4[C@H]5CC[C@@H]6C[C@H](O[C@H]7O[C@@H](CO)[C@@H](O)[C@@H](O)[C@@H]7O[C@H]7O[C@@H](CO)[C@H](O)[C@@H](O)[C@@H]7O)CC[C@@]6(C)[C@@H]5CC[C@@]4(C)[C@@H]3[C@H]2C)[C@H](O)C1 as the compound, how does the IC50 [1] read?
**A.** > 50 µM

**Q.** What about the IC50 [2] of the same compound?
**A.** > 50 µM

**Q.** And the IC50 [3]?
**A.** > 50 µM

**Q.** And the IC50 [4]?
**A.** > 50 µM

**Q.** What about the IC50 [5] of the same compound?
**A.** > 50 µM

**Q.** What does the source list for C[C@@H]1C(=O)O[C@H]2C[C@H]3[C@@H]4CC[C@H]5C[C@@H](O)[C@@H](O)C[C@]5(C)[C@H]4CC[C@]3(C)[C@H]21?
**A.** IC50 [1]: > 50 µM; IC50 [2]: > 50 µM; IC50 [3]: > 50 µM; IC50 [4]: > 50 µM; IC50 [5]: > 50 µM

**Q.** For CC(=O)C1=C[C@H](O)[C@H]2[C@@H]3CC[C@H]4C[C@@H](O[C@@H]5O[C@H](CO)[C@H](O)[C@H](O)[C@H]5O[C@@H]5O[C@H](CO)[C@@H](O)[C@H](O)[C@H]5O)CC[C@]4(C)[C@H]3CC[C@]12C, which IC50 [1] is on record?
**A.** > 50 µM

**Q.** And the IC50 [2]?
**A.** > 50 µM

**Q.** And the IC50 [3]?
**A.** > 50 µM

**Q.** And the IC50 [4]?
**A.** > 50 µM

**Q.** And the IC50 [5]?
**A.** > 50 µM

**Q.** Which results are given for C[C@@H](CCC1(O)O[C@H]2C[C@H]3[C@@H]4CC[C@H]5C[C@@H](O)CC[C@]5(C)[C@H]4CC[C@]3(C)[C@H]2[C@@H]1C)CO[C@@H]1O[C@H](CO)[C@@H](O)[C@H](O)[C@H]1O (some centres not stated)?
**A.** IC50 [1]: > 50 µM; IC50 [2]: > 50 µM; IC50 [3]: > 50 µM; IC50 [4]: > 50 µM; IC50 [5]: > 50 µM

**Q.** For C[C@@H]1C(=O)O[C@H]2C[C@H]3[C@@H]4CC[C@H]5C[C@@H](O[C@@H]6O[C@H](CO)[C@H](O)[C@H](O)[C@H]6O[C@@H]6O[C@H](CO)[C@@H](O)[C@H](O)[C@H]6O)CC[C@]5(C)[C@H]4CC[C@]3(C)[C@H]21, which IC50 [1] is on record?
**A.** > 50 µM

**Q.** And the IC50 [2]?
**A.** > 50 µM

**Q.** And the IC50 [3]?
**A.** > 50 µM

**Q.** What about the IC50 [4] of the same compound?
**A.** > 50 µM

**Q.** And the IC50 [5]?
**A.** > 50 µM

**Q.** Which results are given for C[C@@H]1CC[C@]2(OC1)O[C@@H]1[C@@H](O)[C@@H]3[C@H]4CC[C@@H]5C[C@H](O[C@H]6O[C@@H](CO)[C@@H](O)[C@@H](O)[C@@H]6O[C@H]6O[C@@H](CO)[C@H](O)[C@@H](O)[C@@H]6O)CC[C@@]5(C)[C@@H]4CC[C@@]3(C)[C@@H]1[C@H]2C?
**A.** IC50 [1]: > 50 µM; IC50 [2]: > 50 µM; IC50 [3]: > 50 µM; IC50 [4]: > 50 µM; IC50 [5]: > 50 µM

**Q.** What does the source list for C[C@@H]1CC[C@@]2(OC1)O[C@H]1C[C@H]3[C@@H]4CC[C@H]5C[C@@H](O[C@H]6O[C@@H](CO)[C@@H](O)[C@@H](O)[C@@H]6O[C@H]6O[C@@H](CO)[C@H](O)[C@@H](O)[C@@H]6O)[C@@H](O)C[C@]5(C)[C@H]4CC[C@]3(C)[C@H]1[C@@H]2C?
**A.** IC50 [1]: > 50 µM; IC50 [2]: > 50 µM; IC50 [3]: > 50 µM; IC50 [4]: > 50 µM; IC50 [5]: > 50 µM

**Q.** With C[C@H]1CC[C@@]2(OC1)O[C@H]1C[C@H]3[C@@H]4CC[C@H]5C[C@@H](OC6O[C@H](CO)[C@@H](O)[C@H](O)[C@@H]6O[C@@H]6O[C@H](CO)[C@@H](O)[C@H](O)[C@H]6O)CC[C@]5(C)[C@H]4CC[C@]3(C)[C@H]1[C@@H]2C (some centres not stated) as the compound, how does the IC50 [1] read?
**A.** 6.42 µM

**Q.** What about the IC50 [2] of the same compound?
**A.** 25.5 µM

**Q.** And the IC50 [3]?
**A.** 13.8 µM

**Q.** What about the IC50 [4] of the same compound?
**A.** 8.42 µM

**Q.** What about the IC50 [5] of the same compound?
**A.** 9.5 µM
